This is an account of results in ChEMBL document CHEMBL1127222, “Protection of the peptide bond against -chymotrypsin by the prodrug approach” (Bioorg Med Chem Lett, 1993).

Assay type in all cases: ADME
A short description of data set [1]: Half life period in the presence of alpha-chymotrypsin at the concentration of 0.5 mg/ml.
Data set [2] can be described thus: Half life period in buffer solution at pH 7.4: found to be stable.
Data set [3] is described as follows: Half life period in the presence of alpha-chymotrypsin at the concentration of 1.0 mg/mL.
The nature of data set [4]: Half life period in the presence of alpha-chymotrypsin at the concentration of 0.25 mg/ml.
A short description of data set [5]: Half life period in buffer solution at pH 7.4.

Consider `CC(=O)NC(Cc1ccccc1)C(=O)NCc1ccccc1` (stereo unspecified), for which the results for the half-life in data set [1], in data set [3] and in data set [4] were 7.5 h, 3.9 h and 15 h, respectively. For the same molecule, the T1/2 result in data set [2] is reported as “Stable”.
As for `CC(=O)N(CO)C(Cc1ccccc1)C(N)=O` (stereo unspecified), the half-life (usually the time in which the quantity being followed falls by half) in data set [1] turned out to be 0.583 h; in data set [3] it was 0.533 h; in data set [4], 0.55 h; in data set [5] it was 0.633 h.
On to `CC(=O)NC(Cc1ccccc1)C(N)=O` (stereo unspecified), for which the half-life in data set [1] is 4.9 h; in data set [3], 2.3 h; in data set [4] it was 9.6 h. For the same molecule, the T1/2 entry in data set [2] was “Stable”.
As for `CC(=O)N(CO)C(Cc1ccccc1)C(=O)NCc1ccccc1` (stereo unspecified), the half-life in data set [1] is 1.07 h; in data set [3], 1.05 h; in data set [4] it was 1.08 h; in data set [5] it was 1.05 h.
